{
  "source": "patent US20080058274A1",
  "about": "“Combination Therapy” (priority 2004, published 2008)",
  "key": {"[1]": {"system": "doxorubicin-resistant human breast carcinoma M-109 cell line", "assay": "Cytotoxicity, methylene blue (MB) staining assay", "type": "cell-based", "details": "M-109 doxorubicin-resistant cells", "description": "Cytotoxicity studies: The cytotoxicity of C6Cer-DXN-SSL against doxorubicin-resistant human breast carcinoma M-109 cell line was tested by the methylene blue (MB) staining assay [Gorodetsky, R. et al. Int. J. Cancer. 75:635-642 (1998)]. A known number of exponentially growing cells in 200 μL of medium were plated in 96-microwell, flat-bottomed plates. For each of the variants tested, 4 wells were used. Following 24 hr of incubation in culture, different concentrations of drugs or formulations were added to each well containing untreated cells.\nCells were exposed to drugs for 96 hr. […] The MB bound to the fixed cells was extracted by incubation at 37° C. with 200 μL of 0.1 N HCl for 1 h, and the net optical density of the dye in each well was determined by a plate spectrophotometer (Labsystems Multyskan Bichromatic, Finland) at 620 nm.\nStatistical analysis: Median survival times and the statistical significance of differences in survival curves were calculated by means of the log-rank test using Prism Software (GraphPad, San Diego, Calif.). […] For assessment of synergy, the combination index (CI) was determined by median effect analysis [Chow T C, Talalay P. Quantitative analysis of dose-effect relationships: the combined effects of multiple drugs or enzyme inhibitors. […]"}, "C-26 colon carcinomas": {"system": "C-26 colon carcinomas", "assay": "In vivo antitumor efficacy, mice inoculated i.p. with C-26 colon carcinoma", "parameters": "species or system BALB/c mice", "details": "i.v. treatment, DXN 8 mg/kg", "method": "In vivo evaluation of antitumor efficacy of Liposomal DXN: All the experimental procedures which make use of animals (mice) were done in accordance with the standards required by the Institutional Animal Care and Use Committee of the Hebrew University and Hadassah Medical Organization and approved by the Committee.\nTo test therapeutic efficacy, female BALB/c mice (in the weight range of 16-20 g) were injected i.p. with 1*10^6 C-26 colon carcinomas. The viability of these cells was >90% by trypan blue exclusion. Therapeutic efficacy of i.v. injected SSL (DXN-C6Cer-SSL) containing both DXN in intraliposome aqueous phase (DXN/PL ratio of 0.2) and 11.5 mole % of C6Cer in comparison to Doxil (alone) and free DXN was studied. In all 3 treatments DXN dose was 0.16 mg/mouse (8 mg/kg) and dose of C6Cer injected into mice treated with DXN-C6Cer-SSL was 0.25 mg.mouse (12.5 mg/kg). Intravenous treatment began at day 4 after tumor cell inoculation and was repeated three times at 5-days intervals. The median survival and percentage increase in life span of treated (T) over control (C) animals (Tx100/C)-100 were calculated.\nStatistical analysis: Median survival times and the statistical significance of differences in survival curves were calculated by means of the log-rank test using Prism Software (GraphPad, San Diego, Calif.). Differences were considered significant at P<0.05."}, "[2]": {"assay": "Doxorubicin pharmacokinetics and biodistribution in tumor-bearing mice", "type": "in vivo, BALB/c mice", "description": "Pharmacokinetics and biodistribution studies in tumor-bearing mice: Eight to 10-week-old BALB/c female mice, obtained through the Animal Breeding House of the Hebrew University (Jerusalem, Israel), were housed at Hadassah Medical Center at a specific pathogen free (SPF) facility with food and water ad libitum. Each mouse was injected with one inoculum of tumor cells (1×10^6 murine C-26 cells) subcutaneously into the left flank. 7 days later SSL formulations containing both DXN (0.16 mg/mouse) and C6Cer, (0.25 mg/mouse), Doxil (0.16 mg/mouse) and free DXN (0.16 mg/mouse) were injected i.v. At 1, 4, 24 and 48 hr after injection, the animals were anesthetized with 4% chloral hydrate (Fluka, USA), bled by eye inoculation, and plasma was separated from blood cells by 5 min centrifugation at 5,000 rpm. Various organs (liver, heart, lungs, kidneys) and tumor were removed. Each time period in each treated group consisted of 3 mice. Samples were frozen at −80° C. until assayed. Thereafter, plasma samples were diluted in 90% isopropanol containing 10% 0.75N HCl in order to dissolve all liposome's lipids and release the DXN to the solution, and concentration of DXN was determined according to a standard calibration curve of DXN (excitation at 485±10 mu and emission at 590±10 nm) from fluorescence intensity using Synergy HT plate reader in its fluorescence mode (Bio-Tek, Vermont, USA).\nDoxorubicin pharmacokinetics and biodistribution studies in tumor-bearing mice: BALB/c female mice were injected with one inoculum of tumor cells (1×10^6 C-26 cells) subcutaneously into the left flank. Seven days later, liposomal formulations containing both DXN and C6Cer [HSPC:^2kPEG-DSPE:Chol:C6Cer (76:7.5:5:11.5)-DXN]; Doxil or Free DXN were injected i.v., and bled by eye inoculation, plasma was isolated and 50 μl was taken from plasma for further analysis. DXN levels were determined after “extraction” of plasma with acidic isopropanol as described in Methods."}},
  "note": "Counter-ions that a name gives are not always drawn. Like-named read-outs stand apart in the source and are kept apart here.",
  "data": [
    {"smiles": "COc1cccc2c1C(=O)c1c(O)c3c(c(O)c1C2=O)C[C@@](O)(C(=O)CO)C[C@@H]3O[C@H]1C[C@H](N)[C@H](O)[C@H](C)O1", "note": "[free DXN, 8S,10S)-10-[(3-amino-2,3,6-trideoxy-a-L-lyxo-hexopyranosyl)oxy]-8-glycolyl-7,8,9,10-tetrahydro-6,8,11-trihydroxy-1-methoxy-5,12-naphthacenedione hydrochloride]", "values": [
      {"measurement": "IC50", "setting": "[1]; M109, agent given alone, 96 hr exposure, read-out: IC50", "result": 2200, "unit": "nM"},
      {"measurement": "IC50", "setting": "[1]; M109, combined with liposomal C6Cer at its IC10, 96 hr, read-out: IC50 of DXN in the presence of IC10 concentration of liposomal C6Cer", "result": 900, "unit": "nM"},
      {"measurement": "survival 80 days after treatment initialization", "setting": "C-26 colon carcinomas; FIG. 3", "result": 0, "unit": "%"},
      {"measurement": "median survival", "setting": "C-26 colon carcinomas; untreated 16 day", "result": 35, "unit": "days"},
      {"measurement": "DXN remaining in plasma", "setting": "[2]; 1 hr post-injection, i.v. 0.16 mg DXN/mouse, FIG. 4A", "result": 3, "unit": "%"},
      {"measurement": "DXN level in heart tissue", "setting": "[2]; 4 hr post-treatment, i.v., FIG. 4B", "result": 5.7, "unit": "%"},
      {"measurement": "DXN level in tumor tissue", "setting": "[2]; 24 hr post-injection (maximum), i.v., s.c. C-26 tumor, FIG. 4B", "result": 1, "unit": "%"},
      {"measurement": "DXN remaining in circulation", "setting": "[2]; plasma, 48 hr post-injection, i.v. 0.16 mg DXN/mouse, FIG. 4A", "result": "below detection"}
    ]}
  ]
}
